Patent publication US8802664B2 (Bioproject, priority 2010, dated 2014)

Experiments:
human H4 receptor = molecular target: T1, human H4 receptor (Homo sapiens, UniProt Q9H3N8); assay: [3H]Histamine binding on membranes of CHO cells stably expressing human H4 receptor
T1 construct: expressed in transfected cells
Procedure, shortened: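 Filter-bound counts (liquid scintillation) gave H4 binding. Incubation used 20 μg membrane protein/well in Tris/HCl 50 mM plus EDTA 0.5 mM at pH 7.4, and 10 μM JNJ 7777120 set nonspecific binding. Filtration on GF/B pretreated with polyethyleneimine stopped the reaction.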

T1 sequence (Q9H3N8 whole entry): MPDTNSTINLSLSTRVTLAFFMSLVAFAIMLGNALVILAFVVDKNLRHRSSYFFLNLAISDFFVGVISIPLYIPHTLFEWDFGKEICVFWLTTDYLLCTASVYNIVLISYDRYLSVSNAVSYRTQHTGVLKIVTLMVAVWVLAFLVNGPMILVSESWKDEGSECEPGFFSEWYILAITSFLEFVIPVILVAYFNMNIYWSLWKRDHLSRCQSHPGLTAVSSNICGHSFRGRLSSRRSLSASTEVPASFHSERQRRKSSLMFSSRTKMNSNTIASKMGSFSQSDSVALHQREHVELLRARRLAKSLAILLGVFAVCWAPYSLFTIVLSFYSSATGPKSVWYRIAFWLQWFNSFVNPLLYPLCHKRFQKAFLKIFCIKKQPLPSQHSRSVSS

CN1CCC(OC(c2cccc(C#CCCCN)c2)c2nc3ccccc3[nH]2)CC1 (single isomer, unassigned) [Example 565, 5-{3-[(1H-benzimidazol-2-yl)(1-methylpiperidin-4-yloxy)methyl]phenyl}pent-4-ynylamine]
Ki or IC50 activity class (human H4 receptor): < 300 nM
melting point: 84 °C

CC(C)c1cccc(C(NC2CCN(C)CC2)c2nc3ccccc3[nH]2)c1 (stereo not drawn) [Example 66, [(1H-benzimidazol-2-yl)(3-isopropylphenyl)methyl](1-methylpiperidin-4-yl)amine]
Ki or IC50 activity class (human H4 receptor): < 1000 nM
melting point: 82 °C

CN1CCC(OC(c2nc3ccccc3[nH]2)c2ccc(F)cc2O)CC1 (stereo not drawn) [Example 584]
Ki or IC50 activity class (human H4 receptor): < 30 nM
melting point: 140 °C

CN1CCC(OC(c2cccc(SCCC3CCCCN3)c2)c2nc3ccccc3[nH]2)CC1 (stereo not drawn) [Example 395, 2-{(1-methylpiperidin-4-yloxy)[3-(2-piperidin-2-yl-ethylsulfanyl)phenyl]methyl}-1H-benzimidazole]
Ki or IC50 activity class (human H4 receptor): < 300 nM
melting point: 164 °C

CN1CCC(OC(c2cccc(-c3ccc(NC(=O)OC(C)(C)C)cc3)c2)c2nc3ccccc3[nH]2)CC1 (stereo not drawn) [Example 138, {3′-[(1H-benzimidazol-2-yl)(1-methylpiperidin-4-yloxy)methyl]biphenyl-4-yl}carbamic acid tert-butyl ester]
Ki or IC50 activity class (human H4 receptor): < 300 nM
melting point: 135 °C

CN1CCC(OC(c2cccc(SCCCCO)c2)c2nc3cc(F)c(F)cc3[nH]2)CC1 (stereo not drawn) [Example 470]
Ki or IC50 activity class (human H4 receptor): < 300 nM
melting point: 60 °C

CN1CCC(OC(c2cccc(CCC3CNC3)c2)c2nc3ccccc3[nH]2)CC1 (stereo not drawn) [Example 392, 2-[[3-(2-azetidin-3-ylethyl)phenyl](1-methylpiperidin-4-yloxy)methyl]-1H-benzimidazole]
Ki or IC50 activity class (human H4 receptor): < 1000 nM
melting point: 146 °C

CSc1ccccc1-c1cccc(C(OC2CCN(C)CC2)c2nc3ccccc3[nH]2)c1 (stereo not drawn) [Example 114, 2-[(1-methylpiperidin-4-yloxy)(2′-methylsulfanylbiphenyl-3-yl)methyl]-1H-benzimidazole]
Ki or IC50 activity class (human H4 receptor): < 300 nM
melting point: 163 °C

CN1CCC(OC(c2cccc(C#CCCCCNC(=N)NC(=O)OC(C)(C)C)c2)c2nc3ccccc3s2)CC1 (stereo not drawn) [Example 341, N-tert-butoxycarbonyl-N′-(6-{3-[(benzothiazol-2-yl)(1-methylpiperidin-4-yloxy)methyl]phenyl}hex-5-ynyl)guanidine]
Ki or IC50 activity class (human H4 receptor): < 300 nM
melting point: 130 °C

CN1CCC(OC(c2nc3ccccc3[nH]2)c2ccccc2O)CC1 (stereo not drawn) [Example 561, 2-[(1H-benzimidazol-2-yl)(1-methylpiperidin-4-yloxy)methyl]phenol]
Ki or IC50 activity class (human H4 receptor): < 30 nM
melting point: 118 to 120 °C

CN1CCC(OC(c2cccc(N=[N+]=[N-])c2)c2nc3ccccc3[nH]2)CC1 (stereo not drawn) [Example 231, 2-[(3-azidophenyl)(1-methylpiperidin-4-yloxy)methyl]-1H-benzimidazole]
Ki or IC50 activity class (human H4 receptor): < 300 nM
melting point: 53 °C

CN1CCC(OC(c2cccc(Br)c2)c2nc3cc(F)c(F)cc3[nH]2)CC1 (stereo not drawn) [Example 469, 2-[(3-bromophenyl)(1-methylpiperidin-4-yloxy)methyl]-5,6-difluoro-1H-benzimidazole]
Ki or IC50 activity class (human H4 receptor): < 1000 nM
melting point: 70 °C

CN1CCC(OC(c2nc3cc(F)c(F)cc3[nH]2)c2cc(OC(F)(F)F)ccc2F)CC1 (stereo not drawn) [Example 511]
Ki or IC50 activity class (human H4 receptor): < 300 nM
melting point: 79 °C

CCCOc1cccc(C(NC2CCN(C)CC2)c2nc3ccccc3[nH]2)c1 (stereo not drawn) [Example 50, [(1H-benzimidazol-2-yl)(3-propoxyphenyl)methyl](1-methylpiperidin-4-yl)amine]
Ki or IC50 activity class (human H4 receptor): < 30 nM
melting point: 143 °C

CC(=O)c1cccc(C(NC2CCN(C)CC2)c2nc3ccccc3[nH]2)c1 (stereo not drawn) [Example 90, 1-{3-[(1H-benzimidazol-2-yl)(1-methylpiperidin-4-ylamino)methyl]phenyl}ethanone]
Ki or IC50 activity class (human H4 receptor): < 300 nM
melting point: 198 °C

CN1CCC(OC(c2nc3ccccc3[nH]2)c2cc(Br)ccc2O)CC1 (stereo not drawn) [Example 575]
Ki or IC50 activity class (human H4 receptor): < 30 nM
melting point: 145 °C

Cc1ccc(C(OC2CCN(C)CC2)c2nc3ccccc3[nH]2)cc1F (stereo not drawn) [Example 554]
Ki or IC50 activity class (human H4 receptor): < 300 nM
melting point: 92 °C

Cc1ccccc1C(OC1CCN(C)CC1)c1nc2ccccc2[nH]1 (stereo not drawn) [Example 193, 2-[(1-methylpiperidin-4-yloxy)-o-tolyl-methyl]-1H-benzimidazole]
Ki or IC50 activity class (human H4 receptor): < 300 nM
melting point: 190 °C

CN1CCC(OC(c2nc3ccccc3[nH]2)c2cc(O)ccc2O)CC1 (stereo not drawn) [Example 618]
Ki or IC50 activity class (human H4 receptor): < 30 nM
melting point: 189 °C

CN1CCC(NC(c2cccc(OCCCC(F)(F)F)c2)c2nc3ccccc3[nH]2)CC1 (stereo not drawn) [Example 175, {(1H-benzimidazol-2-yl)[3-(4,4,4-trifluoro-butoxy)phenyl]methyl}(1-methylpiperidin-4-yl)amine]
Ki or IC50 activity class (human H4 receptor): < 300 nM
melting point: 94 °C

CN1CCC(OC(c2nc3cc(F)ccc3[nH]2)c2cc(C#CCCCN)ccc2F)CC1 (stereo not drawn) [Example 558]
Ki or IC50 activity class (human H4 receptor): < 30 nM
melting point: 90 °C

CN1CCC(NC(c2cccc(OC(F)(F)F)c2)c2nc3ccccc3[nH]2)CC1 (stereo not drawn) [Example 60, [(1H-benzimidazol-2-yl)(3-trifluoromethoxyphenyl)methyl](1-methylpiperidin-4-yl)amine]
Ki or IC50 activity class (human H4 receptor): < 30 nM
melting point: 82 °C

Cc1c(F)cc(C(OC2CCN(C)CC2)c2nc3ccccc3[nH]2)c(O)c1F (stereo not drawn) [Example 624]
Ki or IC50 activity class (human H4 receptor): < 30 nM
melting point: 146 °C

CN1CCC(OC(c2nc3ccccc3[nH]2)c2cc(OCC(F)(F)F)ccc2F)CC1 (stereo not drawn) [Example 522]
Ki or IC50 activity class (human H4 receptor): < 30 nM
melting point: 204 °C

CN1CCC(OC(c2nc3ccccc3[nH]2)c2cccc(I)c2F)CC1 (stereo not drawn) [Example 334, 2-[(2-fluoro-3-iodophenyl)(1-methylpiperidin-4-yloxy)methyl]-1H-benzimidazole]
Ki or IC50 activity class (human H4 receptor): < 300 nM
melting point: 125 °C

CN1CCC(OC(c2cccc(OCCCCCN3CCN(C(=O)OC(C)(C)C)CC3)c2)c2nc3ccccc3s2)CC1 (stereo not drawn) [Example 362, 4-(5-{3-[benzothiazol-2-yl(1-methylpiperidin-4-yloxy)methyl]phenoxy}pentyl)piperazine-1-carboxylic acid tert-butyl ester]
Ki or IC50 activity class (human H4 receptor): < 1000 nM
melting point: 131 °C

CN1CCC(OC(c2cccc(C#CCO)c2)c2nc3ccccc3[nH]2)CC1 (stereo not drawn) [Example 190, 3-{3-[(1H-benzimidazol-2-yl)(1-methylpiperidin-4-yloxy)methyl]phenyl}prop-2-yn-1-ol]
Ki or IC50 activity class (human H4 receptor): < 300 nM
melting point: 117 to 120 °C

COc1cccc(C(OC2CCN(C)CC2)c2nc3ccccc3[nH]2)c1 (stereo not drawn) [Example 542]
Ki or IC50 activity class (human H4 receptor): < 30 nM
melting point: 83 °C

CN1CCC(OC(c2nc3ccccc3[nH]2)c2cc(F)ccc2F)CC1 (stereo not drawn) [Example 424, 2-[(2,5-difluorophenyl)(1-methylpiperidin-4-yloxy)methyl]-1H-benzimidazole]
Ki or IC50 activity class (human H4 receptor): < 300 nM
melting point: 140 °C

CN1CCC(OC(c2nc3ccccc3[nH]2)c2cc(SCCF)ccc2O)CC1 (stereo not drawn) [Example 614]
Ki or IC50 activity class (human H4 receptor): < 30 nM
melting point: 127 °C

CN1CCC(OC(c2nc3ccccc3[nH]2)c2cccc(F)c2O)CC1 (stereo not drawn) [Example 581]
Ki or IC50 activity class (human H4 receptor): < 30 nM
melting point: 145 °C

CN1CCC(OC(c2nc3ccccc3s2)c2cccc3ccccc23)CC1 (stereo not drawn) [Example 17, 2-[(1-methylpiperidin-4-yloxy)naphthalen-1-ylmethyl]benzothiazole]
Ki or IC50 activity class (human H4 receptor): < 1000 nM
melting point: 106.5 °C

CN1CCC(OC(c2nc3c(F)c(F)c(F)cc3[nH]2)c2cc(OC(F)(F)F)ccc2F)CC1 (stereo not drawn) [Example 510]
Ki or IC50 activity class (human H4 receptor): < 300 nM
melting point: 75 °C

CN1CCC(OC(c2cccc(SCc3ccccc3)c2)c2nc3ccccc3s2)CC1 (stereo not drawn) [Example 148, 2-[(3-benzylsulfanylphenyl)(1-methylpiperidin-4-yloxy)methyl]benzothiazole]
Ki or IC50 activity class (human H4 receptor): < 300 nM
melting point: 195 °C

CN1CCC(OC(c2nc3ccccc3[nH]2)c2ccc(OC(F)(F)F)cc2O)CC1 (stereo not drawn) [Example 621]
Ki or IC50 activity class (human H4 receptor): < 30 nM
melting point: 133 °C

COc1ccc(O)c(C(OC2CCN(C)CC2)c2nc3ccccc3[nH]2)c1 (stereo not drawn) [Example 573]
Ki or IC50 activity class (human H4 receptor): < 300 nM
melting point: 146 °C

CN1CCC(OC(c2cccc(-c3ccc(C(F)(F)F)cc3)c2)c2nc3ccccc3[nH]2)CC1 (stereo not drawn) [Example 119, 2-[(1-methylpiperidin-4-yloxy)(4′-trifluoromethylbiphenyl-3-yl)methyl]-1H-benzimidazole]
Ki or IC50 activity class (human H4 receptor): < 300 nM
melting point: 95 °C

CN1CCC(OC(c2nc3ccccc3[nH]2)c2cc(Cc3ccccc3)ccc2O)CC1 (stereo not drawn) [Example 596]
Ki or IC50 activity class (human H4 receptor): < 30 nM
melting point: 120 °C

CN1CCC(OC(c2nc3ccccc3[nH]2)c2cc(SCCCF)ccc2O)CC1 (stereo not drawn) [Example 612]
Ki or IC50 activity class (human H4 receptor): < 30 nM
melting point: 128 °C

COc1cccc(C(NC2CCN(C)CC2)c2nc3ccccc3[nH]2)c1 (stereo not drawn) [Example 70, [(1H-benzimidazol-2-yl)(3-methoxyphenyl)methyl](1-methylpiperidin-4-yl)amine]
Ki or IC50 activity class (human H4 receptor): < 300 nM
melting point: 182 °C

CCCNC(=O)c1cccc(C(OC2CCN(C)CC2)c2nc3ccccc3s2)c1 (stereo not drawn) [Example 220, 3-[benzothiazol-2-yl(1-methylpiperidin-4-yloxy)methyl]-N-propylbenzamide]
Ki or IC50 activity class (human H4 receptor): < 30 nM
melting point: 60 °C

CN1CCC(NC(c2ccccc2)c2nc3ccccc3[nH]2)CC1 (stereo not drawn) [Example 39, [(1H-benzimidazol-2-yl)phenylmethyl](1-methylpiperidin-4-yl)amine]
Ki or IC50 activity class (human H4 receptor): < 300 nM
melting point: 133 °C
